Consider 35 compounds from ChEMBL document CHEMBL4145486, “Design, synthesis and biological evaluation of LX2343 derivatives as neuroprotective agents for the treatment of Alzheimer's disease” (Eur J Med Chem, 2018).

One data set relates to SH-SY5Y. The data set is described as follows: Neuroprotective activity against STZ induced cell death of human SH-SY5Y cells after 24 hrs by MTT assay. The data set is classed as functional, cell-based. (In general: Tetrazolium assays rely on reduction of a dye to a coloured formazan, in cell work by metabolically active cells.)
The target of data set [1] is Amyloid-beta precursor protein (Homo sapiens) (UniProt P05067). The data set is described as follows: Inhibition of STZ induced beta amyloid (unknown origin) deposition in HEK293 cells harboring APPSW mutant at 20 uM by ELISA. The data set is classed as cell-based. For orientation: An ELISA detects its analyte on a solid surface through an enzyme-linked reagent.
The target in data set [2] is Microtubule-associated protein tau (Homo sapiens) (UniProt P10636). The data set is described as follows: Inhibition of STZ induced tau hyperphosphorylation at ser396 residues in human SH-SY5Y cells at 20 uM by immunohistochemical assay. The data set is classed as cell-based.
Data set [3] concerns the target Amyloid-beta precursor protein (Homo sapiens) (UniProt P05067). The data set is described as follows: Inhibition of STZ induced beta amyloid clearance in human SH-SY5Y cells by ELISA. The data set is classed as cell-based.
Data set [4] has as its system Mus musculus. The data set is described as follows: Toxicity in APP1/PS1 transgenic mouse assessed as change in swimming speed at 15 to 30 mg/kg, ip administered 100 days. It counts as organism-based. Conditions: in vivo, 2400 h.
Data set [5] relates to Mus musculus. The data set is described as follows: Toxicity in APP1/PS1 transgenic mouse assessed as effect on liver function at 15 to 30 mg/kg, ip administered 100 days. It counts as organism-based. The note with it: in vivo, 2400 h.
The subject of data set [6] is Mus musculus. The data set is described as follows: Antialzheimer activity in APP1/PS1 transgenic mouse assessed as decrease in escape latencies at 30 mg/kg, ip administered 100 days prior to testing and measured at day 6 post continuous dosing by Morris water maze test. It counts as functional, organism-based.
Data set [7] deals with Mus musculus. The data set is described as follows: Antialzheimer activity in APP1/PS1 transgenic mouse assessed as decrease in prolonged path length at 30 mg/kg, ip administered 100 days prior to testing and measured at day 6 post continuous dosing by Morris water maze test. The data set is classed as functional, organism-based.
Data set [8] has as its system Mus musculus. The data set is described as follows: Toxicity in APP1/PS1 transgenic mouse assessed as change in body weight at 15 to 30 mg/kg, ip administered 100 days. It counts as organism-based. The note with it: in vivo, 2400 h.

Activity calls are given as the source filed them. No cut-off for these calls is given here.

Chain of Amyloid-beta precursor protein (Homo sapiens) (P05067 whole entry): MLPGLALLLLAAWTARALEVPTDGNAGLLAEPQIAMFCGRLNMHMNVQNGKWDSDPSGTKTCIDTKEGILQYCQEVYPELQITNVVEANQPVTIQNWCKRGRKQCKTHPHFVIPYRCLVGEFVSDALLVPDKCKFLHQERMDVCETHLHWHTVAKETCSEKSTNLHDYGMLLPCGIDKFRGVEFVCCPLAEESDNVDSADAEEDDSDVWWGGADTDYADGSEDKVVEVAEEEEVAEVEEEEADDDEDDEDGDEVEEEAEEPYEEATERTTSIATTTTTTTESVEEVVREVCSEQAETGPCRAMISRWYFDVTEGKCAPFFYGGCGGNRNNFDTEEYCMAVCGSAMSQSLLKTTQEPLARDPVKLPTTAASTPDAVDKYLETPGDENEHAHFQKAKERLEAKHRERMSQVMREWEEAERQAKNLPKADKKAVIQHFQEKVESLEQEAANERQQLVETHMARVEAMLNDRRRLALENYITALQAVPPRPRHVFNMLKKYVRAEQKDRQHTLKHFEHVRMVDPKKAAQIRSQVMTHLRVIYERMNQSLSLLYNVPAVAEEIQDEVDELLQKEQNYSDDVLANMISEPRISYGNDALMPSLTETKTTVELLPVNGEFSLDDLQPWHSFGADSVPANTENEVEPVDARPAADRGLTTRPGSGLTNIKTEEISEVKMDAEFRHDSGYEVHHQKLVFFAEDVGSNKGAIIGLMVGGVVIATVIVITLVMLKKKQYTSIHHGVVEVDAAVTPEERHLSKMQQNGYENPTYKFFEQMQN
Chain of Microtubule-associated protein tau (Homo sapiens) (P10636 whole entry): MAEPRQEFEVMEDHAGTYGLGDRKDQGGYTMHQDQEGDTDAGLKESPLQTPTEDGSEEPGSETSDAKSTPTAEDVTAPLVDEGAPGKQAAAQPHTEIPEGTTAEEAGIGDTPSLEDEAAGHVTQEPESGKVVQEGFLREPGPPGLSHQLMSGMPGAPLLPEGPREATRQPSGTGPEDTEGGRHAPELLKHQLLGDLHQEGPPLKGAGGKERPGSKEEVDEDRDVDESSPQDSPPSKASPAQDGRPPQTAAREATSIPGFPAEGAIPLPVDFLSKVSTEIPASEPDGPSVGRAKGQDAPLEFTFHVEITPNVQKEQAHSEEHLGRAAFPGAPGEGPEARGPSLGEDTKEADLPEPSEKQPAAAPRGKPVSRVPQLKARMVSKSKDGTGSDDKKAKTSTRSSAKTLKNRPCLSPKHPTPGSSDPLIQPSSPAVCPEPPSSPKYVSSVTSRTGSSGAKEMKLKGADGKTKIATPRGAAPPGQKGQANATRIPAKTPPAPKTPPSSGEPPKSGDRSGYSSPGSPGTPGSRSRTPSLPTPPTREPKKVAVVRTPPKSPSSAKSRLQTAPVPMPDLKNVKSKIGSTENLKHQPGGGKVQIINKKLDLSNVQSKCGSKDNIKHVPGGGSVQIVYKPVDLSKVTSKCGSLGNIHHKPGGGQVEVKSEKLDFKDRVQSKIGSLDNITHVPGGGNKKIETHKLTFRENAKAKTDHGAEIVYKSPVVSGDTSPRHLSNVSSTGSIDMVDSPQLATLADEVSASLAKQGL

For `CC12CC3CC(C)(C1)CC(NC(=O)CN(c1ccc(Cl)cc1)S(=O)(=O)c1ccccc1)(C3)C2`, the EC50 (in general, the concentration giving half of the maximal effect) with SH-SY5Y was above 20 µM.
Same read-out and setting: under `CC12CC3CC(C)(C1)CC(NC(=O)CN(c1ccccc1)S(=O)(=O)c1ccccc1)(C3)C2` stands above 20 µM; under `COc1ccc(Cl)cc1N(CC(=O)NC12CC3CC(C)(CC(C)(C3)C1)C2)S(=O)(=O)c1ccc(Cl)cc1`, above 20 µM.
On to `COc1ccc(Cl)cc1N(CC(=O)Nc1ccc([N+](=O)[O-])cc1)S(=O)(=O)c1ccccc1`, for which the EC50 in the data set with SH-SY5Y amounted to 8.21 µM.
As for `COc1ccc(CNC(=O)CN(c2cc(Cl)ccc2OC)S(=O)(=O)c2ccccc2)cc1`, the EC50 in the data set on SH-SY5Y is above 20 µM.
Turning to `CC12CC3CC(C)(C1)CC(NC(=O)CN(c1cccc(Cl)c1)S(=O)(=O)c1ccccc1)(C3)C2`, in the data set with SH-SY5Y, the EC50 amounted to 12.3 µM.
In the data set with SH-SY5Y, `CCCNC(=O)CN(c1cc(Cl)ccc1OC)S(=O)(=O)c1ccccc1` yielded an EC50 above 20 µM.
Turning to `COc1ccc(Cl)cc1N(CC(=O)N1CCCCC1)S(=O)(=O)c1ccccc1`, the inhibition entry in data set [1] was “Active”. Further, in the data set on SH-SY5Y, the EC50 came out at 14.5 µM.
For the compound `COc1ccc(Cl)cc1N(CC(=O)Nc1ccc(C(F)(F)F)cc1)S(=O)(=O)c1ccccc1`, the inhibition result in data set [2], in data set [1] and in data set [3] was “Active” each time. The EC50 in the data set with SH-SY5Y is 3.75 µM.
For `COc1ccccc1NC(=O)CN(c1cc(Cl)ccc1OC)S(=O)(=O)c1ccccc1`, a half-maximal response in the data set on SH-SY5Y (EC50) required 15.5 µM.
In turn, `COc1ccc(Cl)cc1N(CC(=O)NC12CC3CC(C)(CC(C)(C3)C1)C2)S(=O)(=O)c1ccc([N+](=O)[O-])cc1` showed an EC50 in the data set with SH-SY5Y above 20 µM.
`COc1ccc(Cl)cc1N(CC(=O)Nc1ccccc1)S(=O)(=O)c1ccccc1` returned an EC50 in the data set with SH-SY5Y above 20 µM.
The same measure, in the same setting: under `COc1ccc(NC(=O)CN(c2cc(Cl)ccc2OC)S(=O)(=O)c2ccccc2)cc1OC` stands above 20 µM.
Consider `CCn1c2ccccc2c2cc(NC(=O)CN(c3cc(Cl)ccc3OC)S(=O)(=O)c3ccccc3)ccc21`, for which the inhibition entry in [1] and in [3] was “Active” in each case. In the data set on SH-SY5Y, a half-maximal response (EC50) required 0.25 µM.
Turning to `CCN(CC)C(=O)CN(c1cc(Cl)ccc1OC)S(=O)(=O)c1ccccc1`, in the data set with SH-SY5Y, the EC50 is above 20 µM.
In the case of `COc1ccc(NC(=O)CN(c2cc(Cl)ccc2OC)S(=O)(=O)c2ccccc2)cc1`, a half-maximal response in the data set with SH-SY5Y (EC50) required 16.2 µM.
On to `COc1ccc(Cl)cc1NC(=O)CN(c1cc(Cl)ccc1OC)S(=O)(=O)c1ccccc1`, for which, in the data set on SH-SY5Y, the EC50 was above 20 µM.
Take `COc1ccc(Cl)cc1N(CC(=O)NC12CC3CC(C)(CC(C)(C3)C1)C2)S(=O)(=O)c1ccc(C)cc1`: the EC50 in the data set with SH-SY5Y is above 20 µM.
In the data set on SH-SY5Y, `COc1cccc(NC(=O)CN(c2cc(Cl)ccc2OC)S(=O)(=O)c2ccccc2)c1` yielded an EC50 of 17.6 µM.
Regarding `COc1ccc(Cl)cc1N(CC(=O)NC12CC3CC(C)(CC(C)(C3)C1)C2)S(=O)(=O)c1ccccc1`, the Activity entry in the data set on Mus musculus [4], in the data set with Mus musculus [5] and in the data set on Mus musculus [8] was “Non-Toxic” in each case. Moreover, the inhibition result in data set [2], in data set [1] and in data set [3] was “Active” each time. Further, the outcome in the data set with Mus musculus [6] and in the data set with Mus musculus [7] was Active. Further, the EC50 in the data set with SH-SY5Y came to 0.22 µM.
In turn, `Cc1ccc(N(CC(=O)NC23CC4CC(C)(CC(C)(C4)C2)C3)S(=O)(=O)c2ccccc2)cc1Cl` yielded an EC50 with SH-SY5Y of 8.86 µM.
Consider `COc1ccc(Cl)cc1N(CC(=O)Nc1cccc2c3ccccc3n(C)c12)S(=O)(=O)c1ccccc1`, for which the inhibition entry in [1] and in data set [3] was “Active” throughout. The EC50 with SH-SY5Y amounted to 3.18 µM.
Take `COc1ccc(Cl)cc1N(CC(=O)Nc1cccc2ccccc12)S(=O)(=O)c1ccccc1`: in the data set with SH-SY5Y, the EC50 worked out at 17.4 µM.
Still for that read-out and setting: under `COc1ccc(Cl)cc1N(CC(=O)N1CCc2ccccc21)S(=O)(=O)c1ccccc1` stands above 20 µM; under `CC12CC3CC(C)(C1)CC(NC(=O)CN(c1ccccc1Cl)S(=O)(=O)c1ccccc1)(C3)C2`, 16.1 µM.
In turn, `COc1ccc(Cl)cc1N(CC(=O)NC12CC3CC(C)(CC(C)(C3)C1)C2)C(=O)c1ccccc1` displayed an EC50 with SH-SY5Y above 20 µM.
In turn, `COc1ccc(Cl)cc1N(CC(=O)Nc1ccc2c(c1)c1ccccc1n2C)S(=O)(=O)c1ccccc1` had an EC50 in the data set with SH-SY5Y of 1.32 µM.
As for `CC12CC3CC(C)(C1)CC(NC(=O)CN(C1CCCCC1)S(=O)(=O)c1ccccc1)(C3)C2`, the EC50 with SH-SY5Y was above 20 µM.
In the data set with SH-SY5Y, `COc1ccc(Cl)cc1N(CC(=O)Nc1ccc2[nH]c3ccccc3c2c1)S(=O)(=O)c1ccccc1` displayed an EC50 of 2.75 µM.
In turn, `COc1ccc(Cl)cc1N(CC(=O)Nc1cccc2c1[nH]c1ccccc12)S(=O)(=O)c1ccccc1` showed an EC50 in the data set on SH-SY5Y of 6.56 µM.
The same measure, in the same setting: under `COc1ccc(Cl)cc1N(CC(=O)NC1CCCCC1)S(=O)(=O)c1ccccc1` stands 17.6 µM; under `COc1ccc(Cl)cc1N(CC(=O)Nc1ccc(Cl)cc1)S(=O)(=O)c1ccccc1`, above 20 µM; under `Cc1c(Cl)cccc1N(CC(=O)NC12CC3CC(C)(CC(C)(C3)C1)C2)S(=O)(=O)c1ccccc1`, above 20 µM.
`CCn1ccc2cc(NC(=O)CN(c3cc(Cl)ccc3OC)S(=O)(=O)c3ccccc3)ccc21`: in the data set on SH-SY5Y, the EC50 was found to be 2.22 µM.
In the data set with SH-SY5Y, `COc1ccc(Cl)cc1N(CC(=O)N(C1CCCCC1)C1CCCCC1)S(=O)(=O)c1ccccc1` returned an EC50 of 14.3 µM.
